The inhibition is the relative decrease from the control value, in per cent.

Our source for the inhibition values is US9278982B2, “Targeting human thymidylate kinase induces DNA repair toxicity in malignant tumor cells” (NATIONAL YANG-MING UNIVERSITY, priority 2010, dated 2016).

For the first assay, the target named is T1, TMPK (Homo sapiens, UniProt P23919).
T1 sequence (P23919 1-212): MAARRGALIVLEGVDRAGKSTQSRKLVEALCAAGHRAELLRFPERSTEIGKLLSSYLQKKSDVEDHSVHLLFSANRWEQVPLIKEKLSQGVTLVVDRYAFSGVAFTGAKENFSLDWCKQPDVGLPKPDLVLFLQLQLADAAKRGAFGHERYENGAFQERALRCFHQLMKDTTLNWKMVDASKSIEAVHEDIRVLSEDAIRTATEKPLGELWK
The assay is described as follows: In vitro TMPK inhibitory activity of TMPK inhibitor derivatives (inhibition yield). Further details: GST (N, cleaved yes); made in house; host or cells: E. coli JM109 (pGEX-2T-hTMPK), inferred. Conditions: 2 μM; n=3 or 6; read-out: inhibition yield, normalized to compound 21 (YMU1) = 100%. It is filed as biochemical. The source says:
Chemical structures of the different TMPK inhibitor derivatives tested for in vitro TMPK inhibitory activity and in vivo doxorubicin sensitization activity (in MDA-MB231 cells) are depicted below.
For `Cc1cc(C)c2c(=O)n(CC(=O)N3CCNCC3)sc2n1` [compound 20, 4,6-Dimethyl-2-(2-oxo-2-(piperazin-1-yl)ethyl)isothiazolo[5,4-b]pyridin-3(2H)-one], the inhibition at 2 µM stood at 99.5%.

As for `O=C(O)Cn1sc2ccccc2c1=O` [compound 8, 2-(3-oxobenzo[d]isothiazol-2(3H)-yl)acetic acid], the inhibition at 2 µM turned out to be 29.1%.

`CC(C)(C)OC(=O)N1CCN(C(=O)CN2C(=O)c3ccccc3S2(=O)=O)CC1` [compound 17, Tert-butyl 4-(2-(3-oxobenzo[d]isothiazol-2(3H)-yl)acetyl)piperazine-1-carboxylate 1,1-dioxide]: the inhibition at 2 µM stood at 10.1%.

Turning to `O=C(Cn1sc2ccccc2c1=O)N1CCN(C(=O)OCc2ccccc2)CC1` [compound 13, Benzyl 4-(2-(3-oxobenzo[d]isothiazol-2(3H)-yl)acetyl)piperazine-1-carboxylate], the inhibition at 2 µM is 127%.

Consider `Cc1cc(C)c2c(OCC(=O)O)nsc2n1` [compound 26, 2-(4,6-Dimethylisothiazolo[5,4-b]pyridin-3-yloxy)acetic acid], for which the inhibition at 2 µM turned out to be 16.4%.

`COC(=O)COc1nsc2nc(C)cc(C)c12` [compound 25, Methyl 2-(4,6-dimethylisothiazolo[5,4-b]pyridin-3-yloxy)acetate]: the inhibition at 2 µM is 7.8%.

For the molecule `COC(=O)Cn1sc2ccccc2c1=O` [compound 6, Methyl 2-(3-oxobenzo[d]isothiazol-2(3H)-yl)acetate], the inhibition at 2 µM came out at 96%.

Consider `O=C(Cn1sc2ccccc2c1=O)N1CCN(C(=O)Cn2sc3ccccc3c2=O)CC1` [compound 24, 2,2′-(2,2′-(piperazine-1,4-diyl)bis(2-oxoethane-2,1-diyl))dibenzo[d]isothiazol-3(2H)-one], for which the inhibition at 2 µM was 118%.

`Cc1ccc2c(=O)[nH]sc2n1` [compound 3, 6-Methylisothiazolo[5,4-b]pyridin-3(2H)-one]: the inhibition at 2 µM amounted to 76.5%.

Consider `CCOC(=O)N1CCN(C(=O)CCCn2sc3ccccc3c2=O)CC1` [compound 23, Ethyl 4-(4-(3-oxobenzo[d]isothiazol-2(3H)-yl)butanoyl)piperazine-1-carboxylate], for which the inhibition at 2 µM stood at 0%.

Turning to `CCOC(=O)N1CCN(C(=O)N2Cc3ccccc3C2=O)CC1` [compound 5, Ethyl 4-(1-oxoisoindoline-2-carbonyl)piperazine-1-carboxylate], the inhibition at 2 µM amounted to 92.9%.

Take `C=CCN1CCN(C(=O)Cn2sc3ccccc3c2=O)CC1` [compound 15, 2-(2-(4-Allylpiperazin-1-yl)-2-oxoethyl)benzo[d]isothiazol-3(2H)-one]: the inhibition at 2 µM was 102%.

On to `Cc1cc(C)c2c(=O)n(CC(=O)N3CCN(C(=O)OC(C)(C)C)CC3)sc2n1` [compound 22, Tert-butyl 4-(2-(4,6-dimethyl-3-oxoisothiazolo[5,4-b]pyridin-2(3H)-yl)acetyl) piperazine-1-carboxylate], for which the inhibition at 2 µM is 112%.

In the case of `Cc1cc(C)c2c(=O)n(CC(=O)O)sc2n1` [compound 9, 2-(4,6-Dimethyl-3-oxoisothiazolo[5,4-b]pyridin-2(3H)-yl)acetic acid], the inhibition at 2 µM came to 47%.

Turning to `CC(C)(C)OC(=O)N1CCN(C(=O)CN2C(=O)c3ccccc3C2=O)CC1` [compound 18, Tert-Butyl 4-[2-(1,3-dioxo-1,3-dihydro-isoindol-2-yl)-acetyl]-piperazine-1-carboxylate], the inhibition at 2 µM amounted to 51.4%.

Regarding `O=C(CN1C(=O)c2ccccc2S1(=O)=O)N1CCNCC1` [compound 16, 2-(2-Oxo-2-(piperazin-1-yl)ethyl)benzo[d]isothiazol-3(2H)-one 1,1-dioxide], the inhibition at 2 µM was found to be 11.8%.

Still in this assay, the particulars now being: n=3 or 6; read-out: inhibition yield, normalized to compound 21 (YMU1) = 100%.
`CCOC(=O)N1CCN(C(=O)Cn2sc3ccccc3c2=O)CC1` [compound 11, Ethyl 4-(2-(3-oxobenzo[d]isothiazol-2(3H)-yl)acetyl)piperazine-1-carboxylate]: the inhibition was found to be 100%.
